Usually GI50 stands for the concentration giving 50% growth inhibition.

These results are taken from ChEMBL document CHEMBL1201862, “PubChem BioAssay data set” (2004).

What all share (assay): cells
What all share (assay type): functional

For one assay, the system named is SN12K1. The note with it: Homo sapiens.
A further assay has as its system P388/ADR. The note with it: Mus musculus.
Another assay relates to P388. The note with it: Mus musculus.

Molecules are shown by their SMILES. The source made the active and inactive calls. Rule as the data show it: active = GI50 up to about 1.1 µM and inactive = higher.

Take `O=C(O)/C=C/C(=O)N1C/C(=C\c2ccccc2)C(=O)/C(=C/c2ccccc2)C1`: the GI50 in the assay with SN12K1 was 1820 nM (inactive); in the assay on P388/ADR, 13800 nM (inactive); in the assay with P388, 11900 nM (inactive).

Consider `COc1cc(C2c3cc4c(cc3[C@@H](Nc3ccccc3)C3COC(=O)[C@H]23)OCO4)cc(OC)c1O` (some centres not stated), for which the GI50 with SN12K1 is < 16.4 nM (active); in the assay with P388/ADR, 34.4 nM (active); with P388, < 10 nM (active).

As to `COC(=O)[C@@]12OC[C@]34[C@H]([C@@H](O)[C@@H]1O)[C@@]1(C)CC(=O)C(O)=C(C)[C@@H]1C[C@H]3OC(=O)[C@H](OC(=O)/C=C(\C)C(C)C)[C@@H]24` [BRUCEANTIN], the GI50 was 20 nM (active) in the assay with SN12K1, 24.4 nM (active) in the assay with P388/ADR and 21 nM (active) in the assay on P388.

`Cc1cc(O)c2c(=O)c3c(O)cc(O)c4c5c(O)cc(O)c6c(=O)c7c(O)cc(C)c8c1c2c(c34)c(c78)c65` [HYPERICIN]: the GI50 is 92700 nM (inactive) with SN12K1, 49200 nM (inactive) with P388/ADR and 11900 nM (inactive) in the assay on P388.
